# “Also recorded” adds a separate entry of the source.
# Assays:
# MAO-B [1] = molecular target: T1, MAO-B (Homo sapiens, UniProt P27338); assay: MAO-B inhibition, recombinant enzyme, benzylamine substrate; format: biochemical; settings: for SI (MAO-B compared with MAO-A): IC50 (MAO-A)/IC50 (MAO-B); for IC50: IC50 MAO-B; for remaining activity at 1 µM: read-out: residual activity (%) MAO-B
# T1 sequence (P27338 1-520): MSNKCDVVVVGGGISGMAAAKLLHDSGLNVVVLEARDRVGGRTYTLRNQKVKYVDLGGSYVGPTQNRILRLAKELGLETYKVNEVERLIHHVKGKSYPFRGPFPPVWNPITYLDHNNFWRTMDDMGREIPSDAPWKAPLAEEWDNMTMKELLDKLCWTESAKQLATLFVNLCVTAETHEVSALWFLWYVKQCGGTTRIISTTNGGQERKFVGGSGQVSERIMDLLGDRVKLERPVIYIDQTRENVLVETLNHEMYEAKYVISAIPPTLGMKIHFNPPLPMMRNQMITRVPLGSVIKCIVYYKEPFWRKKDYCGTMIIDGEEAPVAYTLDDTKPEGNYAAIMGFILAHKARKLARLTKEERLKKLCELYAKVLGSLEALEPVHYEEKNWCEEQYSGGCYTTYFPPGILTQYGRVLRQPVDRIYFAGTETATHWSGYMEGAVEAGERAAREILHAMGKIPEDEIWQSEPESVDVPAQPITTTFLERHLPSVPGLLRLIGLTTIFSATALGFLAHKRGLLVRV
# BChE = BChE (Equus caballus, UniProt P81908); settings: 10 μM
# MAO-A = molecular target: T2, MAO-A (Homo sapiens, UniProt P21397); assay: biochemical; settings: for remaining activity at 10 µM: read-out: residual activity (%) MAO-A
# T2 sequence (P21397 1-527): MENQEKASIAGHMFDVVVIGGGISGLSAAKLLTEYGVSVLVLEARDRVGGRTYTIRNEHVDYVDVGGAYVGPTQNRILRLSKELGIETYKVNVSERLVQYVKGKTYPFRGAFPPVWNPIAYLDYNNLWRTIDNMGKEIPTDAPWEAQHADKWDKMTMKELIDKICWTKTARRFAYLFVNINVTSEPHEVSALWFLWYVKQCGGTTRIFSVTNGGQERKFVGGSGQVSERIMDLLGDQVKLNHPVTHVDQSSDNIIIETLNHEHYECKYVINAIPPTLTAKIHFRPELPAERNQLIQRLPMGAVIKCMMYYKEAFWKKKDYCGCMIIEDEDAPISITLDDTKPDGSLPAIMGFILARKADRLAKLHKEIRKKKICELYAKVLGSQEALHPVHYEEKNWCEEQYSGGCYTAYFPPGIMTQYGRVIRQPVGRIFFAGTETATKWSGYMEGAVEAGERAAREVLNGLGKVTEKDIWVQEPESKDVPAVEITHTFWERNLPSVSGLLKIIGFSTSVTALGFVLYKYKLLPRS
# BACE1 = BACE1 (Homo sapiens, UniProt P56817); assay: biochemical; settings: read-out: residual activity (%) BACE1
# AChE = AChE (Electrophorus electricus, UniProt O42275); assay: AChE inhibition; settings: 10 μM
# [2] = Cytotoxicity on Vero cells, MTT method; format: cell-based, African green monkey; settings: African green monkey, Vero cells (normal kidney epithelial cell line)
# Vero cells [3] = assay: Cytotoxicity on Vero cells, MTT method; format: cell-based, African green monkey; settings: 100 μg/mL, 24 h
# Vero cells [4] = assay: Intracellular ROS assay in H2O2-treated Vero cells; format: cell-based, African green monkey; settings: 24 h drug treatment, vs H2O2-treated control
# MAO-B [5] = settings: cited from earlier work
# Sequence of AChE (O42275 24-633): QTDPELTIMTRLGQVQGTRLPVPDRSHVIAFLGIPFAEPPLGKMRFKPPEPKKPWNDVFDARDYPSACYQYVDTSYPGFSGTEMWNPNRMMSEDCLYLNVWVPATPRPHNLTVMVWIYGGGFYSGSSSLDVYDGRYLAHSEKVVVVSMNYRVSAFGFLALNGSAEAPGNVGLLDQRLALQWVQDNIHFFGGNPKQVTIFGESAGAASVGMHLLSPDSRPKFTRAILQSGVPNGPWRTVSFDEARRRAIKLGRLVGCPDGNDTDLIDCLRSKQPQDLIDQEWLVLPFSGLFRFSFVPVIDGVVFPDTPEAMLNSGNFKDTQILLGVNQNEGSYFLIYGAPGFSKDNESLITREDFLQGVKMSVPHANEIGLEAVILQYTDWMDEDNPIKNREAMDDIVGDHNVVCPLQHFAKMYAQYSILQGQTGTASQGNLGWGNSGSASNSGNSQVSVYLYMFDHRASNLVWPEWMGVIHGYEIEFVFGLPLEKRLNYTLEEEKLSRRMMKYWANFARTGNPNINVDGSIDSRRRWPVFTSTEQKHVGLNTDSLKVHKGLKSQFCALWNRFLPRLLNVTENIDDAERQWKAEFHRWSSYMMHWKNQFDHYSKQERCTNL
# Sequence of BACE1 (P56817 46-501): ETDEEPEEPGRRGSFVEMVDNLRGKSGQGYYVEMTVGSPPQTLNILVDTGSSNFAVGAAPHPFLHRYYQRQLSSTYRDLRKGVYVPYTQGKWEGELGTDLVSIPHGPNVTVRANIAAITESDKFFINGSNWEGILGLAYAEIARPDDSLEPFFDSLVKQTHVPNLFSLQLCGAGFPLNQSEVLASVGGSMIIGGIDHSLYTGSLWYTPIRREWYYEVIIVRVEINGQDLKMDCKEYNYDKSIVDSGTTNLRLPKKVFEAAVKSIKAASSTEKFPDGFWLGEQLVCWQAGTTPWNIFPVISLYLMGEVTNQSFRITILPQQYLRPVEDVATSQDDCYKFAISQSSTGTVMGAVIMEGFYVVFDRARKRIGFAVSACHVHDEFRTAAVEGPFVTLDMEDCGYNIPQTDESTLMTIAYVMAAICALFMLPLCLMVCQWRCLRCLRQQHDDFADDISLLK
# Sequence of BChE (P81908 whole entry): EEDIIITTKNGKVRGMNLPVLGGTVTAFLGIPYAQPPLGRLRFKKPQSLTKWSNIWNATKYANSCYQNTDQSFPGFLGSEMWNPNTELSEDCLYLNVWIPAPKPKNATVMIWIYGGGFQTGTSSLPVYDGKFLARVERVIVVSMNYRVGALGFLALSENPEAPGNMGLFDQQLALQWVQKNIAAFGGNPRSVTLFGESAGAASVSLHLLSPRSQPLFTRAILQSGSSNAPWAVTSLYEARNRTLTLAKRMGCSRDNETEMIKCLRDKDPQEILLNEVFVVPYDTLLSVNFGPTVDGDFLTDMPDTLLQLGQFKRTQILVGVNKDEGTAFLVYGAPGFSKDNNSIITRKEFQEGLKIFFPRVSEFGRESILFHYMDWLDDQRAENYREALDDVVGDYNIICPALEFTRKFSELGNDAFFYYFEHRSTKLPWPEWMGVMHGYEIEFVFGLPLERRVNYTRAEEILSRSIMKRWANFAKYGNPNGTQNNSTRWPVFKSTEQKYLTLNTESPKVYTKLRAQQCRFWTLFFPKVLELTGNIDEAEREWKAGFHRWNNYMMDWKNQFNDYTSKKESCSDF
SMILES,SI (MAO-B compared with MAO-A) (MAO-B [1]),IC50 (MAO-B [1]) [nM],remaining activity at 1 µM (MAO-B [1]) [%],residual activity (%) BChE (BChE) [%],IC50 (MAO-A) [nM],remaining activity at 10 µM (MAO-A) [%],remaining activity at 10 µM (BACE1) [%],residual activity (%) AChE (AChE) [%],"viability at 24 h, 60 μg/mL [2] [%]","toxicity by cellular morphology, phase-contrast microscopy (Vero cells [3])",intracellular ROS scavenging (Vero cells [4]),SI value (MAO-B [5]),IC50 (MAO-B [5]; read-out: IC50 MAO-B) [nM],Ki (MAO-B [5]; read-out: Ki MAO-B) [nM]
"COc1ccc(/C=C/C=C/C(=O)c2ccc(Br)cc2)cc1 [MK8, (2E,4E)-1-(4-Bromophenyl)-5-(4-methoxyphenyl)penta-2,4-dien-1-one]",1443.8,16.7 ± 0.62,7.85 ± 0.22,80.7 ± 7.70,24100 ± 38,69.6 ± 2.03,80.9 ± 1.67,86.1 ± 5.10,–,–,–,–,–,–
"O=C(/C=C/C=C/c1ccc(F)cc1)c1ccc(Br)cc1 [MK9, (2E,4E)-1-(4-Bromophenyl)-5-(4-fluorophenyl)penta-2,4-dien-1-one]",1671.7,13.5 ± 1.06,2.6 ± 0.57,87.4 ± 6.95,22500 ± 47,74.9 ± 1.29,65 ± 1.61,57.7 ± 0.00,–,–,–,–,–,–
"O=C(/C=C/C=C/c1ccc([N+](=O)[O-])cc1)c1ccc(Br)cc1 [MK10, (2E,4E)-1-(4-Bromophenyl)-5-(4-nitrophenyl)penta-2,4-dien-1-one]",481.0,40.6 ± 0.87,3.4 ± 0.14,87.9 ± 1.86,19500 ± 590,69.1 ± 1.32,69.4 ± 1.03,84.0 ± 0.73,–,–,–,–,–,–
"O=C(/C=C/C=C/c1ccc(Br)cc1)c1ccc(F)cc1 [MK11, (2E,4E)-5-(4-Bromophenyl)-1-(4-fluorophenyl)penta-2,4-dien-1-one]",1394.7,19.8 ± 0.53,3.45 ± 0.21,89.2 ± 6.58,27500 ± 820,76.9 ± 3.02,71.4 ± 1.03,77.8 ± 2.19,–,–,–,–,–,–
"O=C(/C=C/C=C/c1ccc([N+](=O)[O-])cc1)c1ccc(F)cc1 [MK13, (2E,4E)-1-(4-Fluorophenyl)-5-(4-nitrophenyl)penta-2,4-dien-1-one]",5635.2,4.24 ± 0.13,1.95 ± 0.067,97.8 ± 1.55,23700 ± 170,71.5 ± 8.06,76.7 ± 0.64,91.5 ± 0.80,–,–,–,–,–,–
"COc1ccc(/C=C/C=C/C(=O)c2ccccc2)cc1 [MK14, (2E,4E)-5-(4-Methoxyphenyl)-1-phenylpenta-2,4-dien-1-one]",3871.5,4.89 ± 0.17,-0.95,89.0 ± 1.55,18900 ± 1020,61.4 ± 6.27,77.3 ± 1.23,84.7 ± 5.62,> 80,no signs of toxicity,significant scavenging effect of reactive oxygen species; also recorded: significant ROS scavenging effect,–,–,–
"O=C(/C=C/C=C/c1ccc([N+](=O)[O-])cc1)c1ccccc1 [MK15, (2E,4E)-5-(4-Nitrophenyl)-1-phenylpenta-2,4-dien-1-one]",1025.8,12.4 ± 7.92,-3.52,80.2 ± 1.55,12700 ± 570,54.4 ± 5.37,89.5 ± 0.92,68.8 ± 0.80,–,–,–,–,–,–
"O=C(C=CC=Cc1ccccc1)c1ccc(N2CCOCC2)cc1 [MO10, 1-[4-(morpholin-4-yl)phenyl]-5-phenylpenta-2,4-dien-1-one]",–,–,–,–,–,–,–,–,–,–,–,366.13,44,8 ± 3

# Reference: article PMC8908507 (ACS Omega, 2022)
